Here are results for 2 molecules from patent US20220306737A1, “USE OF HIGH-AFFINITY, LIGAND-BLOCKING, HUMANIZED ANTI-T-CELL IMMUNOGLOBULIN DOMAIN AND MUCIN DOMAIN-3 (TIM-3) IGG4 ANTIBODY FOR THE TREATMENT OF MYELOFIBROSIS” (Novartis AG, priority 2019, published 2022).

Series [1] is described as follows: CMBG453X2101 clinical study in advanced solid tumors, safety. In kind it is in vivo, human. The following applies: any dose up to 1200 mg IV Q2W or Q4W. How it is done: (§1) In this study, the selection of the MBG453 dose and regimen is based on the currently available clinical safety, efficacy, PK and PK/PD modeling information from the CMBG453X2101 in advanced solid tumors and CPDR001X2105 in AML and MDS trials for MBG453. For solid tumor subjects, both 800 mg IV Q4W and 400 mg IV every 2 weeks (Q2W) are predicted to give sustained target (TIM-3) occupancy of 90% in tumor in >90% of subjects. […] MBG453 single agent is also being evaluated in AML/MDS subjects in the CPDR001X2105 study with Q4W and Q2W regimens. The recommended dose in AML/MDS has not yet been determined, however it is not expected to be different from solid tumors, based on preliminary PK and safety data.

A short description of series [2]: CPDR001X2105 clinical study in AML/MDS subjects, tolerability. To be noted: 400 mg IV Q2W and 800 mg IV Q4W. The class given is in vivo, human. As to the method:
as §1

A short description of series [3]: MBG453 phase I/II development, impact on hematopoiesis. The class given is in vivo, human.
The test system of series [4] is broad panel of 26 kinases. To be noted: tested at 200 nM; cited from earlier work.
The conditions of series [5]: cited from earlier work.
A further series concerns the target JAK3 (Homo sapiens, UniProt P52333). The following applies: at clinically relevant concentrations; cited from earlier work.

Entries after “also recorded” stand apart in the source; their conditions may differ.

Sequence of JAK3 (P52333 whole entry, species assumed): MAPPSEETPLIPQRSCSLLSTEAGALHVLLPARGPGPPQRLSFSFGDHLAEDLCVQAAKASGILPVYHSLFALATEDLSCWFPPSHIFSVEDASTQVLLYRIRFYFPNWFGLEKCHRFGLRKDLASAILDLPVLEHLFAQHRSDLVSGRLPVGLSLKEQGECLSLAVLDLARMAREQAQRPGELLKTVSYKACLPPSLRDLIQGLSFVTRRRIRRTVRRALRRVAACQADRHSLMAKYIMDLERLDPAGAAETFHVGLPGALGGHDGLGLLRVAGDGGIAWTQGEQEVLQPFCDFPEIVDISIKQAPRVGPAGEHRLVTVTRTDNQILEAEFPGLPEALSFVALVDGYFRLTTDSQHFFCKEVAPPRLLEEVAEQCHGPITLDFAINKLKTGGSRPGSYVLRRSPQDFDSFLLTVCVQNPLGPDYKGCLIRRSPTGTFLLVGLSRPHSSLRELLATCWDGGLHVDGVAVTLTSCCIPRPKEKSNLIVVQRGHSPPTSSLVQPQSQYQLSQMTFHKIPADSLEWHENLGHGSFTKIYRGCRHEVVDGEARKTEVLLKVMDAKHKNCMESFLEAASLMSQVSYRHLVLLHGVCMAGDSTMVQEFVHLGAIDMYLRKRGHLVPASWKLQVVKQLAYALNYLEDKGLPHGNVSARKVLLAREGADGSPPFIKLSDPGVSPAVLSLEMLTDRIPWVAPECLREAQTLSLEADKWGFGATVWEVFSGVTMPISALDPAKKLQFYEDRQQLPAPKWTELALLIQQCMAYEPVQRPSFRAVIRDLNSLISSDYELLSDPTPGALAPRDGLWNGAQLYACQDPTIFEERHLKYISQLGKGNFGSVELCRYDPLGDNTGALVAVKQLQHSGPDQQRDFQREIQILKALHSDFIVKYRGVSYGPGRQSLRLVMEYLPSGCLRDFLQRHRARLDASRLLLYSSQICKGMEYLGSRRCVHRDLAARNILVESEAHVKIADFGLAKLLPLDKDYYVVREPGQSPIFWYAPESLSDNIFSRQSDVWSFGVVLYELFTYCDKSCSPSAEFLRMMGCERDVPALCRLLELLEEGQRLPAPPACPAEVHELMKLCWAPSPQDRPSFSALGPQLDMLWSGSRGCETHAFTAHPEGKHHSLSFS

Consider “MBG453: anti-TIM-3 antibody disclosed in US Patent Application Publication No. 2015/0218274”, for which the safety signal entry in series [1] is “No significant safety signal”. For the same molecule, the tolerability entry in series [2] is given as “well tolerated”. Moreover, in series [3], the impact on hematopoiesis result is “has not been found to have a negative impact on hematopoiesis”.
`N#CC[C@H](C1CCCC1)n1cc(-c2ncnc3[nH]ccc23)cn1` [Ruxolitinib, (R)-3-(4-(7H-pyrrolo[2,3-d]pyrimidin-4-yl)-1H-pyrazol-1-yl)-3-cyclopentylpropanenitrile]: the “inhibition of a broad panel of 26 kinases” value in series [4] was less than 30%. Besides, in series [5] (MF patients), the effect on anemia result was “does not improve”; the “effect on splenomegaly (spleen size) and constitutional symptoms of MF” value is given as “highly effective; also recorded: improvements”. Also, in series [5] (human, in vivo), the hematoxicity entry is on record as “partial transient hematoxicity”. Further, the “inhibition of JAK3” value on JAK3 is recorded as “does not inhibit”.
